Experimental data reported in patent publication US10238670B2, “9-aminomethyl minocycline compounds and methods of use thereof in urinary tract infection (UTI) treatment” (Paratek Pharmaceuticals, Inc., priority 2016, dated 2019).
In brackets after ≈: the same amount, converted by molar mass.

Columns and labels:
Experiment in all cases: In vitro MIC, 2010 surveillance isolates
E. coli ESBL− = format: cell-based, Escherichia coli; settings: for Cumulative % Inhibition at MIC: N=3376
Acinetobacter spp = format: cell-based; settings: for range of MICs (N <10, shown instead of MIC90): N=9
E. faecalis VS = format: cell-based; settings: for Cumulative % Inhibition at MIC: N=2036
E. cloacae CeftazS = format: cell-based; settings: for Cumulative % Inhibition at MIC: N=550
K. pneumoniae ESBL+ = format: cell-based, Klebsiella pneumoniae; settings: for Cumulative % Inhibition at MIC: N=592
MSSA = format: cell-based; settings: for Cumulative % Inhibition at MIC: N=5713
MS CoNS = format: cell-based, Coagulase-Negative Staphylococcus; settings: for Cumulative % Inhibition at MIC: N=461
MRSA = format: cell-based; settings: for Cumulative % Inhibition at MIC: N=4192
E. cloacae CeftazR = format: cell-based; settings: for Cumulative % Inhibition at MIC: N=254

## CN(C)c1cc(CNCC(C)(C)C)c(O)c2c1C[C@H]1C[C@H]3[C@H](N(C)C)C(O)=C(C(N)=O)C(=O)[C@@]3(O)C(O)=C1C2=O [Compound 1, 9-[(2,2-dimethyl-propylamino)-methyl]-minocycline]
E. coli ESBL−; MIC 8 μg/ml
  Cumulative % Inhibition at MIC: 99.9%
E. coli ESBL−; MIC 16 μg/ml
  Cumulative % Inhibition at MIC: 100%
E. coli ESBL−; MIC ≤0.5 μg/ml, listed as head image P00005
  Cumulative % Inhibition at MIC: 54.2%
E. coli ESBL−; MIC ≥32 μg/ml
  Cumulative % Inhibition at MIC: 100%
E. coli ESBL−; N America, N=1172
  MIC90: 2 µg/mL (≈ 3.59 µM)
Acinetobacter spp; Asia/Pac
  range of MICs (N <10, shown instead of MIC90): 0.06-2
Acinetobacter spp; Europe, N=43
  MIC90: 4 µg/mL (≈ 7.19 µM)
Acinetobacter spp; L. Amer
  range of MICs (N <10, shown instead of MIC90): 0.03-4
Acinetobacter spp; N America, N=42
  MIC90: 2 µg/mL (≈ 3.59 µM)
E. faecalis VS; Asia/Pac, N=214
  MIC90: 0.5 µg/mL (≈ 0.898 µM)
E. faecalis VS; Europe, N=669
  MIC90: 0.25 µg/mL (≈ 0.449 µM)
E. faecalis VS; L. Amer, N=290
  MIC90: 0.25 µg/mL (≈ 0.449 µM)
E. faecalis VS; MIC 1 μg/ml
  Cumulative % Inhibition at MIC: 99.9%
E. faecalis VS; MIC 2 μg/ml
  Cumulative % Inhibition at MIC: 100%
E. faecalis VS; MIC ≤0.5 μg/ml, listed as head image P00001
  Cumulative % Inhibition at MIC: 99.3%
E. faecalis VS; N America, N=863
  MIC90: 0.5 µg/mL (≈ 0.898 µM)
E. cloacae CeftazS; Asia/Pac, N=100
  MIC90: 4 µg/mL (≈ 7.19 µM)
E. cloacae CeftazS; Europe, N=183
  MIC90: 4 µg/mL (≈ 7.19 µM)
E. cloacae CeftazS; L. Amer, N=57
  MIC90: 8 µg/mL (≈ 14.4 µM)
E. cloacae CeftazS; MIC 1 μg/ml
  Cumulative % Inhibition at MIC: 15.3%
E. cloacae CeftazS; MIC 2 μg/ml
  Cumulative % Inhibition at MIC: 70.5%
E. cloacae CeftazS; MIC 4 μg/ml
  Cumulative % Inhibition at MIC: 93.3%
E. cloacae CeftazS; MIC 8 μg/ml
  Cumulative % Inhibition at MIC: 95.6%
E. cloacae CeftazS; MIC 16 μg/ml
  Cumulative % Inhibition at MIC: 97.8%
E. cloacae CeftazS; MIC ≤0.5 μg/ml, listed as head image P00014
  Cumulative % Inhibition at MIC: 0.5%
E. cloacae CeftazS; MIC ≥32 μg/ml
  Cumulative % Inhibition at MIC: 100%
E. cloacae CeftazS; N America, N=210
  MIC90: 4 µg/mL (≈ 7.19 µM)
K. pneumoniae ESBL+; Asia/Pac, N=124
  MIC90: 16 µg/mL (≈ 28.7 µM)
K. pneumoniae ESBL+; Europe, N=151
  MIC90: 8 µg/mL (≈ 14.4 µM)
K. pneumoniae ESBL+; L. Amer, N=209
  MIC90: 16 µg/mL (≈ 28.7 µM)
K. pneumoniae ESBL+; MIC 1 μg/ml
  Cumulative % Inhibition at MIC: 19.3%
K. pneumoniae ESBL+; MIC 2 μg/ml
  Cumulative % Inhibition at MIC: 56.8%
K. pneumoniae ESBL+; MIC 4 μg/ml
  Cumulative % Inhibition at MIC: 79.6%
K. pneumoniae ESBL+; MIC 8 μg/ml
  Cumulative % Inhibition at MIC: 90.2%
K. pneumoniae ESBL+; MIC 16 μg/ml
  Cumulative % Inhibition at MIC: 94.8%
K. pneumoniae ESBL+; MIC ≤0.5 μg/ml, listed as head image P00010
  Cumulative % Inhibition at MIC: 1.7%
K. pneumoniae ESBL+; MIC ≥32 μg/ml
  Cumulative % Inhibition at MIC: 100%
K. pneumoniae ESBL+; N America, N=108
  MIC90: 16 µg/mL (≈ 28.7 µM)
MSSA; Asia/Pac, N=641
  MIC90: 0.5 µg/mL (≈ 0.898 µM)
MSSA; Europe, N=2109
  MIC90: 0.25 µg/mL (≈ 0.449 µM)
MSSA; L. Amer, N=590
  MIC90: 0.25 µg/mL (≈ 0.449 µM)
MSSA; MIC 1 μg/ml
  Cumulative % Inhibition at MIC: 99.9%
MSSA; MIC 2 μg/ml
  Cumulative % Inhibition at MIC: 100%
MSSA; MIC ≤0.5 μg/ml
  Cumulative % Inhibition at MIC: 99.7%
MSSA; N America, N=2373
  MIC90: 0.25 µg/mL (≈ 0.449 µM)
MS CoNS; Asia/Pac, N=18
  MIC90: 0.25 µg/mL (≈ 0.449 µM)
MS CoNS; Europe, N=185
  MIC90: 1 µg/mL (≈ 1.8 µM)
MS CoNS; L. Amer, N=67
  MIC90: 0.5 µg/mL (≈ 0.898 µM)
MS CoNS; MIC 1 μg/ml
  Cumulative % Inhibition at MIC: 99.8%
MS CoNS; MIC 2 μg/ml
  Cumulative % Inhibition at MIC: 100%
MS CoNS; MIC ≤0.5 μg/ml
  Cumulative % Inhibition at MIC: 92.4%
MS CoNS; N America, N=191
  MIC90: 0.5 µg/mL (≈ 0.898 µM)
MRSA; Asia/Pac, N=428
  MIC90: 1 µg/mL (≈ 1.8 µM)
MRSA; Europe, N=750
  MIC90: 0.25 µg/mL (≈ 0.449 µM)
MRSA; L. Amer, N=506
  MIC90: 0.25 µg/mL (≈ 0.449 µM)
MRSA; MIC 1 μg/ml
  Cumulative % Inhibition at MIC: 98.4%
MRSA; MIC 2 μg/ml
  Cumulative % Inhibition at MIC: 99.8%
MRSA; MIC 4 μg/ml
  Cumulative % Inhibition at MIC: 100%
MRSA; MIC ≤0.5 μg/ml
  Cumulative % Inhibition at MIC: 95.4%
MRSA; N America, N=2508
  MIC90: 0.5 µg/mL (≈ 0.898 µM)
E. cloacae CeftazR; Asia/Pac, N=63
  MIC90: 8 µg/mL (≈ 14.4 µM)
E. cloacae CeftazR; Europe, N=72
  MIC90: 8 µg/mL (≈ 14.4 µM)
E. cloacae CeftazR; L. Amer, N=42
  MIC90: 4 µg/mL (≈ 7.19 µM)
E. cloacae CeftazR; MIC 1 μg/ml
  Cumulative % Inhibition at MIC: 7.9%
E. cloacae CeftazR; MIC 2 μg/ml
  Cumulative % Inhibition at MIC: 54.3%
E. cloacae CeftazR; MIC 4 μg/ml
  Cumulative % Inhibition at MIC: 81.9%
E. cloacae CeftazR; MIC 8 μg/ml
  Cumulative % Inhibition at MIC: 90.2%
E. cloacae CeftazR; MIC 16 μg/ml
  Cumulative % Inhibition at MIC: 94.1%
E. cloacae CeftazR; MIC ≤0.5 μg/ml, listed as head image P00015
  Cumulative % Inhibition at MIC: 0.4%
E. cloacae CeftazR; MIC ≥32 μg/ml
  Cumulative % Inhibition at MIC: 100%
E. cloacae CeftazR; N America, N=77
  MIC90: 16 µg/mL (≈ 28.7 µM)
